Measured values from ChEMBL document CHEMBL1201862, “PubChem BioAssay data set” (2004).
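Cells were grown in 96-well plates and exposed to each compound for 48 hours at five concentrations; endpoints were interpolated linearly between bracketing concentrations, or set to the highest concentration if not reached. GI50: concentration for 50% inhibition of growth.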 Activity calls are given as the source filed them. No stated cut-off is given here; in the data, active = GI50 up to about 1.1 µM and inactive = higher.

Assays:
Assay in all cases: growth of human tumour cells (NCI), 48 h
[1] = tested on: TK-10
[2] = tested on: SNB-75
[3] = tested on: SK-MEL-5
[4] = tested on: NCI/ADR-RES
[5] = tested on: ACHN
[6] = tested on: SF-268
[7] = tested on: OVCAR-3
[8] = tested on: SF-539
[9] = tested on: HOP-92
[10] = tested on: SK-MEL-28
[11] = tested on: RXF 393
[12] = tested on: HCC 2998
[13] = tested on: CCRF-CEM
[14] = tested on: 786-0
[15] = tested on: IGROV-1
[16] = tested on: NCI-H460
[17] = tested on: NCI-H226
[18] = tested on: A498
[19] = tested on: HL-60
[20] = tested on: HOP-62

`Cc1cc(N(CCC#N)CCC#N)ccc1/C=C1\SC(=S)NC1=O` was tested. Which GI50 [1] did it give?
The GI50 was > 100 µM (inactive).

And the GI50 [2]?
The GI50 was 11.6 µM (inactive).

And the GI50 [3]?
The GI50 was > 100 µM (inactive).

What about the GI50 [4] of the same compound?
The GI50 was > 100 µM (inactive).

And the GI50 [5]?
The GI50 was > 100 µM (inactive).

What about the GI50 [6] of the same compound?
The GI50 was 23.6 µM (inactive).

And the GI50 [7]?
The GI50 was 51.3 µM (inactive).

What about the GI50 [8] of the same compound?
Its GI50 is 69.5 µM (inactive).

And the GI50 [9]?
The GI50 was 36.4 µM (inactive).

And the GI50 [10]?
The GI50 was > 100 µM (inactive).

And the GI50 [11]?
Its GI50 is 19.8 µM (inactive).

And the GI50 [12]?
The GI50 was > 100 µM (inactive).

What about the GI50 [13] of the same compound?
The GI50 was 25.9 µM (inactive).

And the GI50 [14]?
Its GI50 is 74.6 µM (inactive).

And the GI50 [15]?
The GI50 was 65.3 µM (inactive).

What about the GI50 [16] of the same compound?
Its GI50 is 30.3 µM (inactive).

And the GI50 [17]?
The GI50 was > 100 µM (inactive).

And the GI50 [18]?
Its GI50 is 49.8 µM (inactive).

What about the GI50 [19] of the same compound?
Its GI50 is 32.5 µM (inactive).

And the GI50 [20]?
Its GI50 is 22.7 µM (inactive).

What does the source list for `COc1ccc(OC)c(C2CCc3nc4nc(N)nc(N)c4cc3C2)c1` (stereo not given)?
GI50 [1]: 9.77 µM (inactive); GI50 [2]: 1.94 µM (inactive); GI50 [3]: 5.05 µM (inactive); GI50 [4]: > 100 µM (inactive); GI50 [5]: 12 µM (inactive); GI50 [6]: 2.96 µM (inactive); GI50 [7]: 1.82 µM (inactive); GI50 [8]: 3.01 µM (inactive); GI50 [9]: 2.19 µM (inactive); GI50 [10]: 2.4 µM (inactive); GI50 [11]: 2.69 µM (inactive); GI50 [12]: 1.74 µM (inactive); GI50 [13]: 2.96 µM (inactive); GI50 [14]: 2.69 µM (inactive); GI50 [15]: 10.2 µM (inactive); GI50 [16]: 4.66 µM (inactive); GI50 [17]: 8.47 µM (inactive); GI50 [18]: 12.7 µM (inactive); GI50 [19]: 2.64 µM (inactive); GI50 [20]: 2.13 µM (inactive)

Which GI50 [1] does the source give for `c1csc(-c2ccsc2-c2ccsc2)c1` here?
The GI50 was > 100 µM (inactive).

What about the GI50 [2] of the same compound?
Its GI50 is > 100 µM (inactive).

And the GI50 [3]?
Its GI50 is 70 µM (inactive).

What about the GI50 [4] of the same compound?
Its GI50 is 76 µM (inactive).

And the GI50 [5]?
Its GI50 is > 100 µM (inactive).

What about the GI50 [6] of the same compound?
Its GI50 is 92.5 µM (inactive).

What about the GI50 [7] of the same compound?
The GI50 was 16.8 µM (inactive).

What about the GI50 [8] of the same compound?
Its GI50 is > 100 µM (inactive).

What about the GI50 [9] of the same compound?
The GI50 was > 100 µM (inactive).

And the GI50 [10]?
The GI50 was > 100 µM (inactive).

What about the GI50 [11] of the same compound?
The GI50 was 25.6 µM (inactive).

What about the GI50 [12] of the same compound?
The GI50 was 28.3 µM (inactive).

And the GI50 [13]?
The GI50 was 45.2 µM (inactive).

What about the GI50 [14] of the same compound?
Its GI50 is 97.3 µM (inactive).

And the GI50 [15]?
Its GI50 is > 100 µM (inactive).

What about the GI50 [16] of the same compound?
The GI50 was 97.9 µM (inactive).

And the GI50 [17]?
Its GI50 is 0.0264 µM (active).

What about the GI50 [18] of the same compound?
The GI50 was > 100 µM (inactive).

What about the GI50 [19] of the same compound?
The GI50 was 33.1 µM (inactive).

And the GI50 [20]?
The GI50 was > 100 µM (inactive).

`CO[C@H]1C=CO[C@@]2(C)Oc3c(C)c(O)c4c(O)c(c(CN5CCN(C)CC5)c(O)c4c3C2=O)NC(=O)/C(C)=C\C=C[C@H](C)[C@H](O)C(C)[C@@H](O)C(C)[C@H](OC(C)=O)[C@@H]1C` (stereo not given in full) was tested. Which GI50 [1] did it give?
The GI50 was 49.4 µM (inactive).

And the GI50 [2]?
The GI50 was 72.9 µM (inactive).

And the GI50 [3]?
The GI50 was 24.3 µM (inactive).

What about the GI50 [4] of the same compound?
The GI50 was > 100 µM (inactive).

What about the GI50 [5] of the same compound?
Its GI50 is > 75.3 µM (inactive).

What about the GI50 [6] of the same compound?
The GI50 was 50.2 µM (inactive).

And the GI50 [7]?
Its GI50 is 2.88 µM (inactive).

What about the GI50 [8] of the same compound?
Its GI50 is 24.8 µM (inactive).

And the GI50 [9]?
The GI50 was 71.4 µM (inactive).

What about the GI50 [10] of the same compound?
The GI50 was 90.4 µM (inactive).

And the GI50 [11]?
Its GI50 is 48.3 µM (inactive).

And the GI50 [12]?
The GI50 was 44.4 µM (inactive).

And the GI50 [13]?
Its GI50 is 4.39 µM (inactive).

What about the GI50 [14] of the same compound?
Its GI50 is 21.3 µM (inactive).

What about the GI50 [15] of the same compound?
Its GI50 is 33.8 µM (inactive).

And the GI50 [16]?
The GI50 was 39.6 µM (inactive).

And the GI50 [17]?
The GI50 was > 63.5 µM (inactive).

What about the GI50 [18] of the same compound?
Its GI50 is > 100 µM (inactive).

And the GI50 [19]?
The GI50 was 23.1 µM (inactive).

And the GI50 [20]?
Its GI50 is 17.7 µM (inactive).

`COc1cc2c3c(cc(Cl)nc3c1OC)C(=O)C(=O)N2` was tested. Which GI50 [1] did it give?
The GI50 was 18.7 µM (inactive).

What about the GI50 [2] of the same compound?
Its GI50 is 15.7 µM (inactive).

And the GI50 [3]?
The GI50 was 16.4 µM (inactive).

And the GI50 [4]?
Its GI50 is 22.5 µM (inactive).

What about the GI50 [5] of the same compound?
The GI50 was 14.7 µM (inactive).

What about the GI50 [6] of the same compound?
Its GI50 is 17.4 µM (inactive).

And the GI50 [7]?
Its GI50 is 16.6 µM (inactive).

What about the GI50 [8] of the same compound?
The GI50 was 20.2 µM (inactive).

What about the GI50 [9] of the same compound?
The GI50 was 1.81 µM (inactive).

What about the GI50 [10] of the same compound?
The GI50 was 17.1 µM (inactive).

And the GI50 [11]?
The GI50 was 13.6 µM (inactive).

And the GI50 [12]?
The GI50 was 18.2 µM (inactive).

What about the GI50 [13] of the same compound?
Its GI50 is 1.69 µM (inactive).

And the GI50 [14]?
Its GI50 is 5.94 µM (inactive).

And the GI50 [15]?
Its GI50 is 9.89 µM (inactive).

What about the GI50 [16] of the same compound?
Its GI50 is 20.7 µM (inactive).

And the GI50 [17]?
Its GI50 is 21.1 µM (inactive).

What about the GI50 [18] of the same compound?
Its GI50 is 16.6 µM (inactive).

And the GI50 [19]?
The GI50 was 1.36 µM (inactive).

And the GI50 [20]?
Its GI50 is 19.6 µM (inactive).

For `Cc1c(N)nc(C2CC(=O)N2CC(N)C(N)=O)nc1C(=O)NC(C(=O)NC(C)C(O)C(C)C(=O)NC(C(=O)NCCc1nc(-c2nc(C(=O)NCCNCC(C)O)cs2)cs1)C(C)O)C(OC1OC(CO)C(O)C(O)C1OC1OC(CO)C(O)C(OC(N)=O)C1O)c1c[nH]cn1` (stereo not given), which GI50 [1] is on record?
Its GI50 is 37.6 µM (inactive).

And the GI50 [2]?
Its GI50 is 0.344 µM (active).

What about the GI50 [3] of the same compound?
The GI50 was 0.809 µM (active).

What about the GI50 [4] of the same compound?
Its GI50 is 31 µM (inactive).

And the GI50 [5]?
Its GI50 is < 0.0249 µM (active).

And the GI50 [6]?
Its GI50 is 0.5 µM (active).

What about the GI50 [7] of the same compound?
Its GI50 is 6.56 µM (inactive).

And the GI50 [8]?
The GI50 was < 0.0295 µM (active).

What about the GI50 [9] of the same compound?
The GI50 was 0.295 µM (active).

And the GI50 [10]?
Its GI50 is 43.2 µM (inactive).

What about the GI50 [11] of the same compound?
Its GI50 is 0.0344 µM (active).

And the GI50 [12]?
The GI50 was 21.9 µM (inactive).

And the GI50 [13]?
The GI50 was 7.74 µM (inactive).

And the GI50 [14]?
Its GI50 is 33.2 µM (inactive).

What about the GI50 [15] of the same compound?
The GI50 was 37.2 µM (inactive).

What about the GI50 [16] of the same compound?
The GI50 was 0.1 µM (active).

What about the GI50 [17] of the same compound?
Its GI50 is 0.0223 µM (active).

And the GI50 [18]?
The GI50 was 5.35 µM (inactive).

And the GI50 [19]?
The GI50 was 5.75 µM (inactive).

And the GI50 [20]?
The GI50 was 0.0556 µM (active).

`CN(CCCCCl)P(=O)(OCc1ccc([N+](=O)[O-])o1)OC[C@H]1O[C@@H](n2cc(F)c(=O)[nH]c2=O)C[C@@H]1O` (stereo not given in full) was tested. Which GI50 [1] did it give?
Its GI50 is 1.79 µM (inactive).

And the GI50 [2]?
The GI50 was 0.102 µM (active).

What about the GI50 [3] of the same compound?
The GI50 was 0.849 µM (active).

What about the GI50 [4] of the same compound?
Its GI50 is 0.0658 µM (active).

What about the GI50 [5] of the same compound?
The GI50 was 0.0365 µM (active).

What about the GI50 [6] of the same compound?
Its GI50 is 0.0284 µM (active).

What about the GI50 [7] of the same compound?
Its GI50 is 0.52 µM (active).

What about the GI50 [8] of the same compound?
The GI50 was < 0.01 µM (active).

And the GI50 [9]?
Its GI50 is 0.64 µM (active).

And the GI50 [10]?
Its GI50 is 21.2 µM (inactive).

And the GI50 [11]?
Its GI50 is 0.302 µM (active).

What about the GI50 [12] of the same compound?
The GI50 was < 0.01 µM (active).

And the GI50 [13]?
The GI50 was 0.173 µM (active).

What about the GI50 [14] of the same compound?
Its GI50 is 0.883 µM (active).

And the GI50 [15]?
Its GI50 is 1.58 µM (inactive).

And the GI50 [16]?
The GI50 was < 0.01 µM (active).

What about the GI50 [17] of the same compound?
The GI50 was 3.59 µM (inactive).

And the GI50 [18]?
Its GI50 is 0.0236 µM (active).

And the GI50 [19]?
Its GI50 is 0.766 µM (active).

What about the GI50 [20] of the same compound?
Its GI50 is 0.145 µM (active).
